Structures are written as SMILES. Where two headings read alike, the source gives them in different places.

This passage reports IC50 results from patent publication US11912703B2, “6-azaindole compounds” (BRISTOL-MYERS SQUIBB COMPANY, priority 2017, dated 2024).

One test addresses human TLR7 (Homo sapiens (Human), UniProt Q9NYK1). The test can be described thus: TLR7 inhibition reporter assay (HEK-Blue SEAP). Type of test: cell-based. The settings on record: HEK-Blue cells overexpressing human TLR7, gardiquimod 7.5 μM stimulation. On the technique in general: A reporter such as luciferase makes a cellular process visible.
A further test concerns the target human TLR8 (Homo sapiens (Human), UniProt Q9NR97). The test can be described thus: TLR8 inhibition reporter assay (HEK-Blue SEAP).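 Note: SEAP driven by IFN-β minimal promoter with five NF-κB and AP-1 sites, compounds tested 0.05 nM to 50 µM, 22 h incubation, inhibition relative to agonist plus DMSO wells.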
A further test concerns the target human TLR9 (Homo sapiens (Human), UniProt Q9NR96). The test can be described thus: TLR9 inhibition reporter assay (HEK-Blue SEAP).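 Note: SEAP driven by IFN-β minimal promoter carrying five NF-κB and AP-1 sites, 22 h at 37 °C, compounds 0.05 nM–50 µM, inhibition scaled between agonist-plus-DMSO and reference-inhibitor wells.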
Setting [1] is: read-out: TLR8 IC50; HEK-Blue cells overexpressing human TLR8, R848 15.9 μM stimulation, SEAP reporter.
Where [2] appears, read: read-out: TLR9 IC50; HEK-Blue cells overexpressing human TLR9, ODN2006 5 nM stimulation, SEAP reporter.
[3] abbreviates: read-out: TLR8 IC50; HEK-Blue cells overexpressing human TLR8; R848 15.9 μM stimulation; SEAP reporter.
Setting [4] is: read-out: TLR9 IC50; HEK-Blue cells overexpressing human TLR9; ODN2006 5 nM stimulation; SEAP reporter.

human TLR7, sequence (Q9NYK1 27-1049): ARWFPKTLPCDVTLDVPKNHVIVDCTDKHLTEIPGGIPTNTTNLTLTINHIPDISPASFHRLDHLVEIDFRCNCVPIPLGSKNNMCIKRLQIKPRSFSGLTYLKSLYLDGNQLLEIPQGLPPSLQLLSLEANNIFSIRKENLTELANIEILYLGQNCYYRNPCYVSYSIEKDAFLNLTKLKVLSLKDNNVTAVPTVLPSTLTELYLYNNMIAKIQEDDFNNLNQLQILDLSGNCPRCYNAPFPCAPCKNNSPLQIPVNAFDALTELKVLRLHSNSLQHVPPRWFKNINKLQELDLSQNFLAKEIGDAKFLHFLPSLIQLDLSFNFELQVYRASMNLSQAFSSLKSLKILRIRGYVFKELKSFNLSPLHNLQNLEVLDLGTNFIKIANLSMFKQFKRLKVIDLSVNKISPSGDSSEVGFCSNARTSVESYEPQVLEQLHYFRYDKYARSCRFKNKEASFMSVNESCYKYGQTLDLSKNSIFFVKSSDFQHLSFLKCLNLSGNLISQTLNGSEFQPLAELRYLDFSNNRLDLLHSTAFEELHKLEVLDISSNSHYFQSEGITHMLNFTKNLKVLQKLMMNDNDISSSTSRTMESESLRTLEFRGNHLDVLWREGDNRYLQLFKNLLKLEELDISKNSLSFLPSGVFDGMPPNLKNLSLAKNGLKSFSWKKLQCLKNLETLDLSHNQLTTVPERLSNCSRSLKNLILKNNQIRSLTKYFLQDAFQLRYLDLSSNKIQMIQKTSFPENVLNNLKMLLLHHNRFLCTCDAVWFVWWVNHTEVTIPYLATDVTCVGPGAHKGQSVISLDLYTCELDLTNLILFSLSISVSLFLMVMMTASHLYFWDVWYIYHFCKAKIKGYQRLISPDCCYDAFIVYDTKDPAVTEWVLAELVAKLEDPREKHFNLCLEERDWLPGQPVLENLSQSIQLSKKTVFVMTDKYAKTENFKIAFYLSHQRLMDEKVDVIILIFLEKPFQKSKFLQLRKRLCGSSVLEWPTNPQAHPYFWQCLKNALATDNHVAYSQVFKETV
human TLR9, sequence (Q9NR96 26-1032): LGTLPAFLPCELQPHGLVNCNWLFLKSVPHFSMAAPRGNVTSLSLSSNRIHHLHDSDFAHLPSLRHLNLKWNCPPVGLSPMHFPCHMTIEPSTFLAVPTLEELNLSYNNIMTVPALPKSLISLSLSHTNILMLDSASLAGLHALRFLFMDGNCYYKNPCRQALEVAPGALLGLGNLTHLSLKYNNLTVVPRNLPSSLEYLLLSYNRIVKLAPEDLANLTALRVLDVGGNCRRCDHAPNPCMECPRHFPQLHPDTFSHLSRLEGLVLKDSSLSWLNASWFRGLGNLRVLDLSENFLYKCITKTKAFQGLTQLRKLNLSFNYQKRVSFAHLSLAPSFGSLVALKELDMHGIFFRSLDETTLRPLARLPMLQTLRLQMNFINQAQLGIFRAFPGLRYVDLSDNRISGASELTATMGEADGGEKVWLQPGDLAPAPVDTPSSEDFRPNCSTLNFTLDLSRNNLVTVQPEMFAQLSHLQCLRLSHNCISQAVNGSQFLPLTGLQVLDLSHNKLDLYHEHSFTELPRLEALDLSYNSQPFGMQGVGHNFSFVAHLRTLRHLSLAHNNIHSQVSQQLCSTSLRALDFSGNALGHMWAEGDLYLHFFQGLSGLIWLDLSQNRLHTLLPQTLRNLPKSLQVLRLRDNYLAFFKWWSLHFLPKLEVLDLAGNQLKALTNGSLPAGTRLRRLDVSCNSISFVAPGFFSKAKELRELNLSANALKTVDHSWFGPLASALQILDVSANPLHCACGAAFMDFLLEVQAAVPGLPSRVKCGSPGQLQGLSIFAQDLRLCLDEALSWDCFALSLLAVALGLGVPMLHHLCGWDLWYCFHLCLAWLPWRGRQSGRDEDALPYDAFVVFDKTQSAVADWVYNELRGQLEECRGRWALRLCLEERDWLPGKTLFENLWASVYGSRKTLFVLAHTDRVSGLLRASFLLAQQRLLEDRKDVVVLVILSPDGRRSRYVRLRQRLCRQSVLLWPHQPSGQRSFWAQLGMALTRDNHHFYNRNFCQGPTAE
human TLR8, sequence (Q9NR97 27-1041): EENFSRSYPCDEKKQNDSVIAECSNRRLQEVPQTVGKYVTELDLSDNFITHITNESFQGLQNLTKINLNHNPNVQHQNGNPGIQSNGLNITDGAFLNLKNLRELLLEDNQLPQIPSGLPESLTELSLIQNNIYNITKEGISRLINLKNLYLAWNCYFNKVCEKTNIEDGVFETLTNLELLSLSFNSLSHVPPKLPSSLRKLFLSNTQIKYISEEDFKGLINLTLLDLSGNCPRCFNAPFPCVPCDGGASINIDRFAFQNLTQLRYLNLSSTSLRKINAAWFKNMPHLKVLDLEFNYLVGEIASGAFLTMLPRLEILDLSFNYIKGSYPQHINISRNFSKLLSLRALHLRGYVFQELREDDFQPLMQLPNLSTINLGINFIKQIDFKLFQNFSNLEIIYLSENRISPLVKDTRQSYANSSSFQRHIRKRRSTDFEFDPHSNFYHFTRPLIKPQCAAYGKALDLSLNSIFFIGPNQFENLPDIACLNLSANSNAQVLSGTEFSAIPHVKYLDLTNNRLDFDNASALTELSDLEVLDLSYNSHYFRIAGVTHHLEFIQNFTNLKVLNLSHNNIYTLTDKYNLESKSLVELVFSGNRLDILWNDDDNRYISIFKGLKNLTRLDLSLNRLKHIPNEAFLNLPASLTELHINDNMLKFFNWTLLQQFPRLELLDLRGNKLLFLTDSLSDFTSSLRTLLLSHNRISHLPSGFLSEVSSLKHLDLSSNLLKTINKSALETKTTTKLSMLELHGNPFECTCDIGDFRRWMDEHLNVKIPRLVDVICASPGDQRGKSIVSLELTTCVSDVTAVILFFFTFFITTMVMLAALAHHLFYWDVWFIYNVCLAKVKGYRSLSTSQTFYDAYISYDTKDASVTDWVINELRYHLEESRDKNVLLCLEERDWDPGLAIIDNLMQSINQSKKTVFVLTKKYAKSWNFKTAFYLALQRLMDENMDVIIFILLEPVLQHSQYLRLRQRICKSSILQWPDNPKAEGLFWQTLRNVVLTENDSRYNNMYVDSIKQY
Procedure for human TLR8: HEK-Blue™-cells (Invivogen) overexpressing human TLR7, TLR8 or TLR9 receptors were used for screening inhibitors of these receptors using an inducible SEAP (secreted embryonic alkaline phosphatase) reporter gene under the control of the IFN-β minimal promoter fused to five NF-κB and AP-1-binding sites. Briefly, cells are seeded into Greiner 384 well plates (15000 cells per well for TLR7, 20,000 for TLR8 and 25,000 for TLR9) and then treated with test compounds in DMSO to yield a final dose response concentration range of 0.05 nM-50 μM. After a 30 minute compound pre-treatment at room temperature, the cells are then stimulated with a TLR7 ligand (gardiquimod at a final concentration of 7.5 μM), TLR8 ligand (R848 at a final concentration of 15.9 μM) or TLR9 ligand (ODN2006 at a final concentration of 5 nM) to activate NF-κB and AP-1 which induce the production of SEAP. After a 22 hour incubation at 37° C., 500 CO2, SEAP levels are determined with the addition of HEK-Blue™ Detection reagent (Invivogen), a cell culture medium that allows for detection of SEAP, according to manufacturer's specifications.

On to `Cc1cc(-c2[nH]c3cnc(C4CCN(CC(F)(F)F)CC4)c(F)c3c2C(C)C)cn2ncnc12` [Example 41], for which the IC50 at human TLR7 is 36 nM; at human TLR8 (setting [1]), 158 nM; at human TLR9 (setting [2]), more than 50000 nM.
For `COCCN1CCN(c2ncc3[nH]c(-c4cc(OC)c5ncnn5c4)c(C(C)C)c3c2F)[C@H](C)C1` [Example 444], in that order: 5 nM, 6.7 nM and 19900 nM.
As to `CCN1CC2(C1)CN(c1ncc3[nH]c(-c4cc(OC)c5ncnn5c4)c(C(C)C)c3c1F)C2` [Example 379], the half-maximal inhibitory concentration (IC50) stood at 4 nM against human TLR7, 2.3 nM at human TLR8 (setting [1]) and 3630 nM on human TLR9 (setting [2]).
For `Cc1c(-c2[nH]c3cnc(N4CCC(N5CC6(COC6)C5)CC4)c(F)c3c2C(C)C)cn2ncnc2c1C` [Example 111] the same measures were 1 nM, 0.48 nM and 3000 nM.
In the case of `CNC(=O)CN1CCN(c2ncc3[nH]c(-c4cc(OC)c5ncnn5c4)c(C(C)C)c3c2F)CC1` [Example 359], the half-inhibitory concentration (IC50) is 2.5 nM against human TLR7, 2.7 nM at human TLR8 (setting [1]) and more than 50000 nM at human TLR9 (setting [2]).
`COc1cc(-c2[nH]c3cnc(C4CCC(N(C)C(C)C)CC4)c(F)c3c2C(C)C)cn2ncnc12` (centres unmarked) [Example 227]: the figures for the IC50 at human TLR7, on human TLR8 (setting [3]) and at human TLR9 (setting [4]) were 1.9 nM, 2.6 nM and 4320 nM, respectively.
Consider `COc1cc(-c2[nH]c3cnc(N4CCN(C)C[C@H]4C)c(F)c3c2C(C)C)cn2ncnc12` [Example 436], for which the IC50 was determined as 1.8 nM against human TLR7, 5.1 nM at human TLR8 (setting [1]) and 10300 nM at human TLR9 (setting [2]).
Turning to `CCN(C)C1CCC(c2ncc3[nH]c(-c4cc(OC)c5ncnn5c4)c(C(C)C)c3c2F)CC1` (centres unmarked) [Example 228], the IC50 at human TLR7 came to 1.5 nM; on human TLR8 (setting [3]), 2.6 nM; at human TLR9 (setting [4]), 812 nM.
Take `COc1cc(-c2[nH]c3cnc(N4CCN(CC(C)(C)O)CC4)c(F)c3c2C(C)C)cn2ncnc12` [Example 364]: the IC50 was 2.7 nM at human TLR7, 0.38 nM at human TLR8 (setting [1]) and 8700 nM on human TLR9 (setting [2]).
With `Cc1cc(-c2[nH]c3cnc(C4CCN(C(C)C)CC4)c(F)c3c2C(C)C)cn2ncnc12` [Example 212], the IC50 at human TLR7 is 1.6 nM; on human TLR8 (setting [1]), 3.8 nM; on human TLR9 (setting [2]), 2080 nM.
On to `Cc1c(-c2[nH]c3cnc(N4CCC(NC5COC5)CC4)c(C)c3c2C(C)C)cn2ncnc2c1C` [Example 237], for which the half-maximal inhibitory concentration (IC50) against human TLR7 was 1.6 nM; on human TLR8 (setting [1]) it was 0.95 nM; on human TLR8 (setting [3]) it was 0.95 nM; at human TLR9 (setting [2]), 2070 nM; on human TLR9 (setting [4]), 2070 nM.
Regarding `CNC(=O)CN1CCN(c2ncc3[nH]c(-c4cc(OC)c5ncnn5c4)c(C(C)C)c3c2Cl)CC1` [Example 293], the figures for the half-maximal inhibitory concentration (IC50) against human TLR7, on human TLR8 (setting [1]) and on human TLR9 (setting [2]) were 3.1 nM, 4.7 nM and 29100 nM, respectively.
For `CNC(=O)CN1CC2(C1)CN(c1ncc3[nH]c(-c4cc(OC)c5ncnn5c4)c(C(C)C)c3c1F)C2` [Example 356, 2-(6-(4-fluoro-3-isopropyl-2-(8-methoxy-[1,2,4]triazolo[1,5-a]pyridin-6-yl)-1H-pyrrolo[2,3-c]pyridin-5-yl)-2,6-diazaspiro[3.3]heptan-2-yl)-N-methylacetamide] the same measures were 15 nM, 6.1 nM and 18500 nM.
In the case of `CCN(C)C1CCC(c2ncc3[nH]c(-c4cc(C)c5ncnn5c4)c(C(C)C)c3c2F)CC1` (centres unmarked) [Example 199], the concentration for half-maximal inhibition (IC50) against human TLR7 was determined as 0.83 nM; on human TLR8 (setting [1]), 2 nM; at human TLR9 (setting [2]), 1210 nM.
Regarding `COc1cc(-c2[nH]c3cnc(N4CCN(C(C)C)CC4)c(F)c3c2C(C)C)cn2ncnc12` [Example 384], the IC50 was determined as 0.96 nM at human TLR7, 0.55 nM at human TLR8 (setting [1]) and 3260 nM at human TLR9 (setting [2]).
As to `COc1cc(-c2[nH]c3cnc(N4CCC(N(C)C5COC5)CC4)cc3c2C(C)C)cn2ncnc12` [Example 314], the concentration for half-maximal inhibition (IC50) against human TLR7 amounted to 4.3 nM; at human TLR8 (setting [1]) it was 1.5 nM; at human TLR9 (setting [2]), 3700 nM.
With `COc1cc(-c2[nH]c3cnc(C4CCC(NCC(C)(C)C)CC4)c(F)c3c2C(C)C)cn2ncnc12` (centres unmarked) [Example 229], the IC50 against human TLR7 was found to be 8.7 nM; on human TLR8 (setting [3]), 4.2 nM; on human TLR9 (setting [4]), 1460 nM.
On to `COc1cc(-c2[nH]c3cnc(N4CCC(N5CCC5)CC4)c(F)c3c2C(C)C)cn2ncnc12` [Example 253], for which the 50% inhibitory concentration (IC50) against human TLR7 was found to be 0.97 nM; at human TLR8 (setting [1]), 0.77 nM; on human TLR9 (setting [2]) it was 2860 nM.
With `COc1cc(-c2[nH]c3cnc(N4CCN(CC(=O)N(C)C)C[C@H]4C)c(F)c3c2C(C)C)cn2ncnc12` [Example 446], the IC50 on human TLR7 is 18 nM; at human TLR8 (setting [1]), 21 nM; on human TLR9 (setting [2]), more than 50000 nM.
As to `Cc1c(-c2[nH]c3cnc(N4CCN(C5CCN(C(C)C)CC5)C[C@H]4C)c(F)c3c2C(C)C)cn2ncnc2c1C` [Example 462], the IC50 against human TLR7 is 1.1 nM; at human TLR8 (setting [3]) it was 1.5 nM; on human TLR9 (setting [4]), 1970 nM.
For the molecule `CNCC(=O)N1CCC(c2ncc3[nH]c(-c4cc(OC)c5ncnn5c4)c(C(C)C)c3c2F)CC1` [Example 10], the figures for the half-inhibitory concentration (IC50) on human TLR7, on human TLR8 (setting [1]) and at human TLR9 (setting [2]) were 5.6 nM, 19 nM and 896 nM, respectively.
Regarding `COc1cc(-c2[nH]c3cnc(C4CCC(NCC5(C)COC5)CC4)c(F)c3c2C(C)C)cn2ncnc12` (centres unmarked) [Example 225], the half-maximal inhibitory concentration (IC50) amounted to 4 nM at human TLR7, 1.4 nM on human TLR8 (setting [3]) and 4700 nM at human TLR9 (setting [4]).
For the molecule `Cc1c(-c2[nH]c3cnc(N4CCN(C5CCC5)C[C@H]4C)c(F)c3c2C(C)C)cn2ncnc2c1C` [Example 458], the IC50 was 2.5 nM on human TLR7, 1.2 nM on human TLR8 (setting [3]) and 16800 nM on human TLR9 (setting [4]).
`COc1cc(-c2[nH]c3cnc(C4CCC(NCC5(C)COC5)C4)cc3c2C(C)C)cn2ncnc12` (centres unmarked) [Example 275]: the IC50 against human TLR7 turned out to be 35 nM; at human TLR8 (setting [1]) it was 37 nM; at human TLR9 (setting [2]), 845 nM.
`Cc1c(-c2[nH]c3cnc(N4CCC(NC5COC5)CC4)c(F)c3c2C(C)C)cn2ncnc2c1C` [Example 146]: the results for the IC50 on human TLR7, at human TLR8 (setting [1]) and at human TLR9 (setting [2]) were 1.1 nM, 0.46 nM and 6660 nM, respectively.
As to `COc1cc(-c2[nH]c3cnc(N4CCC(N(C)CC(=O)N(C)C)CC4)c(F)c3c2C(C)C)cn2ncnc12` [Example 72], the IC50 on human TLR7 came to 1.5 nM; on human TLR8 (setting [1]), 1.3 nM; at human TLR9 (setting [2]), 6080 nM.
As for `CCN1CC2(C1)CN(c1ncc3[nH]c(-c4cn5ncnc5c(C)c4C)c(C(C)C)c3c1F)C2` [Example 408], the values for the concentration for half-maximal inhibition (IC50) at human TLR7, on human TLR8 (setting [1]) and at human TLR9 (setting [2]) were 16 nM, 61 nM and 12400 nM, respectively.
For `COc1cc(-c2[nH]c3cnc(N4CCC(N5CCOCC5)CC4)c(C)c3c2C(C)C)cn2ncnc12` [Example 278], the concentration for half-maximal inhibition (IC50) against human TLR7 came to 0.79 nM; at human TLR8 (setting [1]), 0.58 nM; at human TLR9 (setting [2]), 1100 nM.
On to `Cc1c(-c2[nH]c3cnc(C4CCC(NC(C)C)CC4)cc3c2C(C)C)cn2ncnc2c1C` (centres unmarked) [Example 318], for which the half-maximal inhibitory concentration (IC50) against human TLR7 was 6 nM; on human TLR8 (setting [1]), 21 nM; on human TLR9 (setting [2]), 846 nM.
Turning to `Cc1c(-c2[nH]c3cnc(N4CCN(C5COC5)C[C@H]4C)c(F)c3c2C(C)C)cn2ncnc2c1C` [Example 457], the figures for the half-maximal inhibitory concentration (IC50) against human TLR7, at human TLR8 (setting [3]) and on human TLR9 (setting [4]) were 3.2 nM, 2.5 nM and 22000 nM, respectively.
On to `COc1cc(-c2[nH]c3cnc(C4CCC(NCC(C)(C)C)C4)cc3c2C(C)C)cn2ncnc12` (centres unmarked) [Example 210], for which the values for the IC50 on human TLR7, at human TLR8 (setting [1]) and on human TLR9 (setting [2]) were 34 nM, 6.6 nM and 1080 nM, respectively.
For `CCN(C)C1CCC(c2ncc3[nH]c(-c4cc(OC)c5ncnn5c4)c(C(C)C)c3c2C)CC1` (centres unmarked) [Example 116], in that order: 10 nM, 42 nM and 766 nM.
For `COc1cc(-c2[nH]c3cnc(C4CCNCC4)c(F)c3c2C(C)C)cn2ncnc12` [Example 3, 6-(4-fluoro-3-isopropyl-5-(piperidin-4-yl)-1H-pyrrolo[2,3-c]pyridin-2-yl)-8-methoxy-[1,2,4]triazolo[1,5-a]pyridine], the IC50 against human TLR7 worked out at 3.2 nM; on human TLR8 (setting [1]), 11 nM; on human TLR9 (setting [2]), 1580 nM.
Take `Cc1c(-c2[nH]c3cnc(N4CCN(CC5CCOCC5)CC4)c(C)c3c2C(C)C)cn2ncnc2c1C` [Example 419]: the concentration for half-maximal inhibition (IC50) against human TLR7 came to 32 nM; at human TLR8 (setting [1]) it was 1.4 nM; on human TLR9 (setting [2]), 5900 nM.
For `Cc1cc(-c2[nH]c3cnc(C4CCC(NC5(C)COC5)CC4)c(F)c3c2C(C)C)cn2ncnc12` (centres unmarked) [Example 81] the same measures were 0.15 nM, 0.61 nM and 2170 nM.
As to `Cc1cc(-c2[nH]c3cnc(C4CCN(CC(N)=O)CC4)c(F)c3c2C(C)C)cc(C)n1` [Example 152], the 50% inhibitory concentration (IC50) worked out at 5 nM against human TLR7, 6.4 nM at human TLR8 (setting [1]) and 4090 nM at human TLR9 (setting [2]).
On to `COc1cc(-c2[nH]c3cnc(N4CC5(C4)CN(C4CCN(C(C)C)CC4)C5)c(F)c3c2C(C)C)cn2ncnc12` [Example 377], for which the concentration for half-maximal inhibition (IC50) against human TLR7 was 16 nM; at human TLR8 (setting [1]), 16 nM; at human TLR9 (setting [2]), 1410 nM.
With `COc1cc(-c2[nH]c3cnc(C4CCC(N5CC6(COC6)C5)CC4)c(C)c3c2C(C)C)cn2ncnc12` (centres unmarked) [Example 246], the IC50 against human TLR7 amounted to 2 nM; at human TLR8 (setting [1]), 17 nM; at human TLR9 (setting [2]), 705 nM.
As to `COc1cc(-c2[nH]c3cnc(N4CC5(CN(CC6CCC6)C5)C4)c(F)c3c2C(C)C)cn2ncnc12` [Example 375], the IC50 against human TLR7 was 17 nM; at human TLR8 (setting [1]) it was more than 3120 nM; at human TLR9 (setting [2]), 7210 nM.
For the molecule `COc1cc(-c2[nH]c3cnc(C4CCN(CC(N)=O)CC4)c(F)c3c2C(C)C)cn2ncnc12` [Example 19], the values for the 50% inhibitory concentration (IC50) on human TLR7, on human TLR8 (setting [1]) and at human TLR9 (setting [2]) were 2 nM, 3 nM and 1760 nM, respectively.

As usually defined, the IC50 is the concentration at which inhibition is half-maximal.
